ChEMBL document CHEMBL5058646 (2022)

What was measured:
[1] = biological target: Transcription regulator protein BACH2 (Homo sapiens) (UniProt Q9BYV9); conditions: SUD4, Compound concentration 1.0 uM
[2] = biological target: Mitogen-activated protein kinase 14 (Homo sapiens) (UniProt Q16539); assay: MAPK14 SGC Tm panel (DSF); conditions: Compound concentration 20.0 uM
[3] = biological target: Zinc finger and BTB domain-containing protein 7A (Homo sapiens) (UniProt O95365); conditions: SUD4, Compound concentration 1.0 uM
[4] = biological target: 5-hydroxytryptamine receptor 2B (Homo sapiens) (UniProt P41595); conditions: Compound concentration 10.0 uM
[5] = biological target: T1, Zinc finger and BTB domain-containing protein 40 (Homo sapiens) (UniProt Q9NUA8); conditions: OCI-Ly1, Compound concentration 1.0 uM
T1 sequence (whole entry): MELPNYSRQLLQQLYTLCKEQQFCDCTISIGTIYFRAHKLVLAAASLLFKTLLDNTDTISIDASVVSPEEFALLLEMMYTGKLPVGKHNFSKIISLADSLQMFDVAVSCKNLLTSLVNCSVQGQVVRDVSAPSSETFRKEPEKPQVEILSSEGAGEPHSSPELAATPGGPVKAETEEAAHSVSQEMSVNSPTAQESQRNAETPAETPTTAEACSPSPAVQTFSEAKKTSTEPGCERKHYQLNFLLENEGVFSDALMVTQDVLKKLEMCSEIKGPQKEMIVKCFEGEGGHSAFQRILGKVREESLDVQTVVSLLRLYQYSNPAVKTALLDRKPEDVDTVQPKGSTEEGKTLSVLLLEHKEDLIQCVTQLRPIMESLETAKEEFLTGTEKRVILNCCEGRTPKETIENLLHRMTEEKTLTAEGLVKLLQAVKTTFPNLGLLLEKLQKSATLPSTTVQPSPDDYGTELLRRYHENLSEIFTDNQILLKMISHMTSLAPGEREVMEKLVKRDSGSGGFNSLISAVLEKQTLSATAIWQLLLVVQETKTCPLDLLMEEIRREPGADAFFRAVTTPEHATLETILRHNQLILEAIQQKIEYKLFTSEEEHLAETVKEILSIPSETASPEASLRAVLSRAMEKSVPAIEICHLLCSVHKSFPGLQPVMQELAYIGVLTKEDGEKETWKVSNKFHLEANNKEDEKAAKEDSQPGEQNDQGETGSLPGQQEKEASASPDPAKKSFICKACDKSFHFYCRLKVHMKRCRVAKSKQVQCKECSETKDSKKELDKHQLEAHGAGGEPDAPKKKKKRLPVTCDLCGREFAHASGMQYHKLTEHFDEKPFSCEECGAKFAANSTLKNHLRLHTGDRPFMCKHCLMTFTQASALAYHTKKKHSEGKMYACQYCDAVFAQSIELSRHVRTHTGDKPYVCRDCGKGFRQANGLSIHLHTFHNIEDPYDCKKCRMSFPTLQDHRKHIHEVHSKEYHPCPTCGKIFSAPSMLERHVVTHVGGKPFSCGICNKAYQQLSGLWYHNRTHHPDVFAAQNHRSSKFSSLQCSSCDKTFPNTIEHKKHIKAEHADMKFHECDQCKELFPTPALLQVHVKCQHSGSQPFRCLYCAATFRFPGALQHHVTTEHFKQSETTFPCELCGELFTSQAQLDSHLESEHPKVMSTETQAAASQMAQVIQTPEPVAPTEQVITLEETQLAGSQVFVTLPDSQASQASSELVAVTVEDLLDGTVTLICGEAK

[6] = biological target: Homeodomain-interacting protein kinase 2 (Homo sapiens) (UniProt Q9H2X6); assay: HIPK2 SGC Tm panel (DSF); conditions: Compound concentration 20.0 uM
[7] = biological target: Death-associated protein kinase 1 (Homo sapiens) (UniProt P53355); assay: DAPK1 SGC Tm panel (DSF); conditions: Compound concentration 20.0 uM
[8] = biological target: Serine/threonine-protein kinase PAK 1 (Homo sapiens) (UniProt Q13153); assay: PAK1 SGC Tm panel (DSF); conditions: Compound concentration 20.0 uM
[9] = biological target: Vascular endothelial growth factor receptor 1 (Homo sapiens) (UniProt P17948); assay: FLT1 SGC Tm panel (DSF); conditions: Compound concentration 20.0 uM
[10] = biological target: Dual specificity protein kinase CLK3 (Homo sapiens) (UniProt P49761); assay: CLK3 SGC Tm panel (DSF); conditions: Compound concentration 20.0 uM
[11] = biological target: Tyrosine-protein kinase Fes/Fps (Homo sapiens) (UniProt P07332); assay: FES SGC Tm panel (DSF); conditions: Compound concentration 20.0 uM
[12] = biological target: Histamine H3 receptor (Homo sapiens, UniProt Q9Y5N1); conditions: Compound concentration 10.0 uM
[13] = biological target: Transcription intermediary factor 1-alpha (Homo sapiens) (UniProt O15164); assay: TIF1 SGC Tm panel (DSF); conditions: Compound concentration 20.0 uM
[14] = biological target: T2, Zinc finger and BTB domain-containing protein 10 (Homo sapiens) (UniProt Q96DT7); conditions: SUD4, Compound concentration 1.0 uM
T2 sequence (whole entry): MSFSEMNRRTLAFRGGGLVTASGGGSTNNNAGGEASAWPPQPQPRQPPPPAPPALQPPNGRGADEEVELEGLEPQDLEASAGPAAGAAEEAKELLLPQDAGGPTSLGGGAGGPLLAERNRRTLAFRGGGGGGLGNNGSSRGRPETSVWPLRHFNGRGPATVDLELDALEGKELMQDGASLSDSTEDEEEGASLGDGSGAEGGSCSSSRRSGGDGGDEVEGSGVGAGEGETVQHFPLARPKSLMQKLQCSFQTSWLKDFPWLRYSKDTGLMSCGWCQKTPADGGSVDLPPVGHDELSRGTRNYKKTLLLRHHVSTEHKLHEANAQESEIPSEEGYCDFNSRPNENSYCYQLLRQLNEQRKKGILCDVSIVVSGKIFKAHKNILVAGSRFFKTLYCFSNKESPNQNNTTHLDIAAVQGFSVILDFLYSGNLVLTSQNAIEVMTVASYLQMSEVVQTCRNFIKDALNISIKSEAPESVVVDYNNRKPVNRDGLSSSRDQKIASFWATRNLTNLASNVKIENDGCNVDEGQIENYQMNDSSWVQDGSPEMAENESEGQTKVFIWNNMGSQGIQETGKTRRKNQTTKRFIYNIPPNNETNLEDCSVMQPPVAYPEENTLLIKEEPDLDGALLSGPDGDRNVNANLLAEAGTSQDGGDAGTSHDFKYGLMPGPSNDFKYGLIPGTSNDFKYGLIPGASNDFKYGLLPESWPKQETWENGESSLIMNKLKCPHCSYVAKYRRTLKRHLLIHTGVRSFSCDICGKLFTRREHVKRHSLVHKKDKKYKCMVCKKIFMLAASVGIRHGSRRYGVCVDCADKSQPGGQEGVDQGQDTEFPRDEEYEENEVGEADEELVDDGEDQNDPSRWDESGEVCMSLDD

Sequence of Transcription intermediary factor 1-alpha (Homo sapiens) (O15164 whole entry, the tested form may be a part): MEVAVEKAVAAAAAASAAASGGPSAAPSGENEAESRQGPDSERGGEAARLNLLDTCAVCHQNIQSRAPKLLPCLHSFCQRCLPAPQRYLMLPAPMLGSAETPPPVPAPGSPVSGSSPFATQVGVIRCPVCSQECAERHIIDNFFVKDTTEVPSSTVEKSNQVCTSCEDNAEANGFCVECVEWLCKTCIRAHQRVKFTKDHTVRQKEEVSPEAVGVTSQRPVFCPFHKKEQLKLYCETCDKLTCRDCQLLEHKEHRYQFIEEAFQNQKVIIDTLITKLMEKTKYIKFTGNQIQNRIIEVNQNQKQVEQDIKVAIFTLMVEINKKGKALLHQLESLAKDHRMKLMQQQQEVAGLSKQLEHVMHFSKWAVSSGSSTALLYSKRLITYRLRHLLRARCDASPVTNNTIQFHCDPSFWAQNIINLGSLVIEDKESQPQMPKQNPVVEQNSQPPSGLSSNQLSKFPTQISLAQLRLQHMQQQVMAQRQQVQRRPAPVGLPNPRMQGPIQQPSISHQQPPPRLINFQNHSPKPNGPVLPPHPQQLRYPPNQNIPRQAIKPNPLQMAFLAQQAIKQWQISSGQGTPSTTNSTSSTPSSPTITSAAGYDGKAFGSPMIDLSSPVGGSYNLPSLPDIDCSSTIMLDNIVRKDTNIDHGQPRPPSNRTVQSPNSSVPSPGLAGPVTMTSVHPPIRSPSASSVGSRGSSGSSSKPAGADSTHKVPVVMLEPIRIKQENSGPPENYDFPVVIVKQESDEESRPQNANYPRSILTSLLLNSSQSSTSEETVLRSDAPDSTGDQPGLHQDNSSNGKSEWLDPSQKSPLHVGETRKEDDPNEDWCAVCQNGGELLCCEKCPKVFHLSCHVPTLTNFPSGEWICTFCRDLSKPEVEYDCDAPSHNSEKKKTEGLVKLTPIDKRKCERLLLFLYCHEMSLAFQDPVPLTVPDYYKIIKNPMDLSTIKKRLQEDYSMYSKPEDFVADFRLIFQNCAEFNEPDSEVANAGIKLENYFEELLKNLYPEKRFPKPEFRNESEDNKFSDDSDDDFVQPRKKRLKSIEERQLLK
Sequence of Transcription regulator protein BACH2 (Homo sapiens) (Q9BYV9 whole entry): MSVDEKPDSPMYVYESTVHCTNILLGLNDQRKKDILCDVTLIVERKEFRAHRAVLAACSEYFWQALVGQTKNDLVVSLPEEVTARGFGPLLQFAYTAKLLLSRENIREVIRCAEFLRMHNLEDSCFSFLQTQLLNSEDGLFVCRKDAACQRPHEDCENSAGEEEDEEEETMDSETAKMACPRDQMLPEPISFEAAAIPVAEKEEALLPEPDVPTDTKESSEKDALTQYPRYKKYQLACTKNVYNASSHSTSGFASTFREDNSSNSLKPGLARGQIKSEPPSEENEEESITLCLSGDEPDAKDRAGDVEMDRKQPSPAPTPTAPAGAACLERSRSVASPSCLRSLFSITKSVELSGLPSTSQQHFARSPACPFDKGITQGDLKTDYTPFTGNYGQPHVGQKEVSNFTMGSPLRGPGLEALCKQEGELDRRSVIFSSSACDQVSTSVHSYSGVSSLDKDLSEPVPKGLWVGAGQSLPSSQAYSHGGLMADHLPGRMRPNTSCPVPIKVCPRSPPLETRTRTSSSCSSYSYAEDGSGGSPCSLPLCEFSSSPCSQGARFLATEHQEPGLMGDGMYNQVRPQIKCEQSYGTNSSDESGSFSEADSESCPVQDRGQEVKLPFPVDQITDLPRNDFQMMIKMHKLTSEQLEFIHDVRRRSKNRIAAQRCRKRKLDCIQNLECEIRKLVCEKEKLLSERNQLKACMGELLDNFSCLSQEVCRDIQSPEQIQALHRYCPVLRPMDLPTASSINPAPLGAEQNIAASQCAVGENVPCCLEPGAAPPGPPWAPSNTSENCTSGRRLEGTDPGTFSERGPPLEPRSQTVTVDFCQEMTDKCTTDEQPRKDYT
Sequence of Death-associated protein kinase 1 (Homo sapiens) (P53355 whole entry, looked up): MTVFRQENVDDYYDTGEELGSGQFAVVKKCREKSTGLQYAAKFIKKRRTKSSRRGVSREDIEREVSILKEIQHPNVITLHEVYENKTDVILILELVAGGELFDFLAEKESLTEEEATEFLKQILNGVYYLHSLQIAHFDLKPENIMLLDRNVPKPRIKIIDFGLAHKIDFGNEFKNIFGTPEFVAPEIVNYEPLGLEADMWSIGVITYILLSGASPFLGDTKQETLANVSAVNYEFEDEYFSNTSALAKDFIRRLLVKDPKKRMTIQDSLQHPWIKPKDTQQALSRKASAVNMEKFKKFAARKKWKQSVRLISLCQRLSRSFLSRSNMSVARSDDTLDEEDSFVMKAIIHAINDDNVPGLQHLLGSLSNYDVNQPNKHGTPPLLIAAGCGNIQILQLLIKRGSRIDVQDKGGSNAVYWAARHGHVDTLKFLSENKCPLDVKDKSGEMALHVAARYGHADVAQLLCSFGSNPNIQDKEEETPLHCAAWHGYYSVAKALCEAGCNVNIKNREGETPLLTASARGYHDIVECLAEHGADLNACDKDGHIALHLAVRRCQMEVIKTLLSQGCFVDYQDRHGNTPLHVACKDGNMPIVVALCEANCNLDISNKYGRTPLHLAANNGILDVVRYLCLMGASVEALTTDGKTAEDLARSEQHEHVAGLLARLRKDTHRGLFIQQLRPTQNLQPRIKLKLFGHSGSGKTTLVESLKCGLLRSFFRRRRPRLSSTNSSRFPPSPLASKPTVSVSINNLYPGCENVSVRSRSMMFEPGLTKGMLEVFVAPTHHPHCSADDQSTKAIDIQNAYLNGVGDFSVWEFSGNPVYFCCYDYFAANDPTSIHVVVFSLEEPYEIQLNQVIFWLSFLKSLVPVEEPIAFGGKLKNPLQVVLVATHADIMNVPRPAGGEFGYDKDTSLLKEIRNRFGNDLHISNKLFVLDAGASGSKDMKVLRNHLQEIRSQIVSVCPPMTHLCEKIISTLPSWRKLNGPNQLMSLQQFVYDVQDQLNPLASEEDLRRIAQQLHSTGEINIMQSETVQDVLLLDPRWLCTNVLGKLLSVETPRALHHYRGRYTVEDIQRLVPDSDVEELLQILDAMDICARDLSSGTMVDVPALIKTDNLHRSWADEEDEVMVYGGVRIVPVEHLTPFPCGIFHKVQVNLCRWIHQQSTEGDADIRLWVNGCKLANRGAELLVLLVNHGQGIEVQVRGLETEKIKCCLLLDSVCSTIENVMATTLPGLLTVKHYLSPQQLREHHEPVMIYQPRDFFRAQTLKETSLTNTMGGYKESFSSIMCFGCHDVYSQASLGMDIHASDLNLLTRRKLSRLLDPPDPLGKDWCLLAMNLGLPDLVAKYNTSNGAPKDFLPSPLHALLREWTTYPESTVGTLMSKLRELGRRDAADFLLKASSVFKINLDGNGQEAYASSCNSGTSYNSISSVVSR
Sequence of 5-hydroxytryptamine receptor 2B (Homo sapiens) (P41595 whole entry, the tested form may be a part): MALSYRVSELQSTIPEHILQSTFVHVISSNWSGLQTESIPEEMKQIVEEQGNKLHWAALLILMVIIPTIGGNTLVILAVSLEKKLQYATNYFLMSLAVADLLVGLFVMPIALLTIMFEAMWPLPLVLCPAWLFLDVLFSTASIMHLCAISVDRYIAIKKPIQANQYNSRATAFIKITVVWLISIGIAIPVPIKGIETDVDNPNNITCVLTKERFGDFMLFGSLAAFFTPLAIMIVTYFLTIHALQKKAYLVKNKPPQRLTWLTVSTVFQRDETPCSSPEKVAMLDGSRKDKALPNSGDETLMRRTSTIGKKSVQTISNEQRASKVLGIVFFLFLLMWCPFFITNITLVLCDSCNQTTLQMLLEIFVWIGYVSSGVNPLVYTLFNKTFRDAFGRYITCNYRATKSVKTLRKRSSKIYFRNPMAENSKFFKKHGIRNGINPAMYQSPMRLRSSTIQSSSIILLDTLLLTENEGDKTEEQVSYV
Sequence of Tyrosine-protein kinase Fes/Fps (Homo sapiens) (P07332 whole entry): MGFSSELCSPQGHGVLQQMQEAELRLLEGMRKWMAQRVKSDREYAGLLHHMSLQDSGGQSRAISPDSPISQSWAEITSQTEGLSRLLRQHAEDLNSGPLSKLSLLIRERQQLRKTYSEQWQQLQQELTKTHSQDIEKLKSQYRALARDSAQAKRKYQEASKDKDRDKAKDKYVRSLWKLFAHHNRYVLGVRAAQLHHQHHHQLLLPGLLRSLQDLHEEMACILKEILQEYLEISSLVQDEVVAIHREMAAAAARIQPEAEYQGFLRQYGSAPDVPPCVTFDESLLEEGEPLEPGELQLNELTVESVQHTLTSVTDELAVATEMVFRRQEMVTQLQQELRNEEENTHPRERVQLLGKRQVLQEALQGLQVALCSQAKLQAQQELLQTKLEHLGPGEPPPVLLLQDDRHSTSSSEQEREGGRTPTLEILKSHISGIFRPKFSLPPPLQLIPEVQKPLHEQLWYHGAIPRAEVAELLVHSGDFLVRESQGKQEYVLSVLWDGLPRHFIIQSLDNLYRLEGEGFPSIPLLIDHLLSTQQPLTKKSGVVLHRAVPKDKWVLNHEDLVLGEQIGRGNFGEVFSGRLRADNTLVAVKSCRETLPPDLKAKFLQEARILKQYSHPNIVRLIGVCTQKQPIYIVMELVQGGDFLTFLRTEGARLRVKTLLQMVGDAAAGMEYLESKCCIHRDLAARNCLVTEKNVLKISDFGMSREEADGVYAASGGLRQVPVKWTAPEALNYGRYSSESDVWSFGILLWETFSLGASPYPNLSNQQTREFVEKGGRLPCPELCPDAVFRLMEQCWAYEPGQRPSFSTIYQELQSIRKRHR
Sequence of Mitogen-activated protein kinase 14 (Homo sapiens) (Q16539 whole entry, the tested form may be a part): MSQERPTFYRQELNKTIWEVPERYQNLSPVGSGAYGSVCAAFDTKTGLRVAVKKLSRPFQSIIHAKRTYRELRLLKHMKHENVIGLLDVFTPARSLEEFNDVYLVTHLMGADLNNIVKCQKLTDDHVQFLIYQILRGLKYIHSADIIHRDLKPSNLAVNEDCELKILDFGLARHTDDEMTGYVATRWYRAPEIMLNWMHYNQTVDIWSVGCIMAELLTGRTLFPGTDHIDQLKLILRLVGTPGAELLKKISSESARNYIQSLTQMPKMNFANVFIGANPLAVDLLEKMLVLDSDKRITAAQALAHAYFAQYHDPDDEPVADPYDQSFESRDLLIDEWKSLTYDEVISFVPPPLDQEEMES

LogFC [1]: -0.0895 | Tm [2]: 45 °C | LogFC [3]: -0.0678 | inhibition [4]: 34.6% | LogFC [5]: -0.194 | Tm [6]: 43 °C | Tm [8]: 46 °C | Tm [9]: 45 °C | Tm [10]: 34 °C | Tm [11]: 44 °C | inhibition [12]: 60.7% | Tm [13]: 36 °C | LogFC [14]: 0.121
SMILES: C[C@@H]1CN(c2ncc(Cl)c(Nc3ccc4c(c3)n(CCC(C)(C)O)c(=O)n4C)n2)C[C@H](C)C1(F)F
Tm [7]: 53 °C
